In patent US20230210849A1, “CADHERIN-11 INHIBITOR FORMULATION AND ITS USES IN IMMUNOTHERAPY” (GEORGETOWN UNIVERSITY, priority 2020, published 2023):
Entries after “also recorded” stand apart in the source; their conditions may differ.

Key:
[1] = system: mT3 pancreatic cancer cells; experiment: s.c. mT3 pancreatic tumor growth in immunocompetent C57BL/6J transplant mice; format: in vivo, mouse; details: for growth rate of pre-existing tumors: started at average tumor volume 100 mm^3 (FIG. 5H)
From the text: The experimental protocols were approved by the Georgetown University Animal Care and Use Committee. A pair of CDH11^−/− mice (Horikawa et al. Dev. Biol. 215: 182-189 (1999)) was kindly provided by Dr. Michael Brenner from Harvard University. A breeding pair of p48-Cre;LSL-Kras^G12D/+;LSL-Trp53^R172H/+ (KPC) mice (Hingorani et al. Cancer Cell 7: 469-483 (2005)) was provided by Dr. Anton Wellstein from Georgetown University. C57BL/6J mice (Cat #000664; Research Resource Identifier (RRID): IMSR_JAX:000664) and Rag1-mutant mice on C57BL/6J background (Cat #002216; RRID: IMSR_JAX:002216) were purchased from The Jackson Laboratory (Bar Harbor, Me.). In transplant experiments, 12-week old C57BL/6J and Rag1-mutant (on C57BL/6J background) mice were bilaterally subcutaneously (s.c.) injected with 5×10^5 mT3 pancreatic cancer cells, derived from a Kras^+/LSL-G12D;Trp53^+/LSL-R172H;Pdx-Cre mouse on C57BL/6 background. Both genders of mice were equally represented throughout all in vivo experiments. Mice were housed in specific pathogen free environment under standard conditions. See, Bandrowski et al. “The Resource Identification Initiative: A cultural shift in publishing,” F1000Res 4: 134 (2015), regarding Research Resource Identifiers (RRIDs),
(§1) Anti-PD1 (InVivoPlus anti-mouse PD1 (CD279), clone RMP1-14, Cat #BP0146, Bio X Cell (Lebanon, N.H.)) was administered intraperitoneally (i.p.) at 250 μg/mouse, 2× week. Gemcitabine (G-4177, LC Laboratories (Woburn, Mass.)) was administered i.p. at 100 mg/kg, 2× week. Treatment with CDH11 monoclonal antibody (mAb), SYN0012 (Roche (Basel, Switzerland)) was administered i.p. at 10 mg/kg, 2× week. Treatment with a small molecule CDH11-inhibitor, SD133, was administered i.p. at 150 mg/kg, 40 mg/kg or 10 mg/kg, 4× week. Stock solution of SD133 at 375 mg/mL was made in DMSO (Sigma (St. Louis, Mo.)), and further diluted in 30% PEG400 (Sigma).

CDH11 = target: T1, CDH11 (Homo sapiens, UniProt P55287); details: in vitro; previously characterized and validated; cited from earlier work
T1 sequence (P55287 54-796): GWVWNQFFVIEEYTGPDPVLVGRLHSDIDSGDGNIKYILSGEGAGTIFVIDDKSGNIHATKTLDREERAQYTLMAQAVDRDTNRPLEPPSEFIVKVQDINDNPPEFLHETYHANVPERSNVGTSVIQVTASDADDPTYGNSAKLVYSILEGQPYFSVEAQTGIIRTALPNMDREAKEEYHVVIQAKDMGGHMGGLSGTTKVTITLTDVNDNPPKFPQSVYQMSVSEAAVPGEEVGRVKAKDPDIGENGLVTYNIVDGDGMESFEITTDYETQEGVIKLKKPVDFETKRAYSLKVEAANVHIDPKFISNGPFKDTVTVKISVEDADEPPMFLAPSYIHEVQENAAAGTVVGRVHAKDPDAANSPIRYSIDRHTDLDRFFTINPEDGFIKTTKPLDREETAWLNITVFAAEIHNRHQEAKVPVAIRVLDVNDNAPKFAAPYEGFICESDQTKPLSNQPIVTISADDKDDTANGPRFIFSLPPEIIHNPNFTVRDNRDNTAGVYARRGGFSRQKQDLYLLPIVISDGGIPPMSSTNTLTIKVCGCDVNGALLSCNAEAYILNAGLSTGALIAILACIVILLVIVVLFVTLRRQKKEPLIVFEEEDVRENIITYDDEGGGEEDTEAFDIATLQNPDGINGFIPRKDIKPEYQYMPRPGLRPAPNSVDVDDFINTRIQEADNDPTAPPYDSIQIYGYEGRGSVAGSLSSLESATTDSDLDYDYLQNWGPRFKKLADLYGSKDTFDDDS

[2] = Body weight / toxicity of treated mT3 tumor-bearing mice; format: in vivo, mouse
Experimental: Body weight of C57BL/6J mice engrafted with syngeneic mT3 cells and treated with (A) vehicle (DMSO), (B) gemcitabine, (C) CDH11 mAb, (D) CDH11 mAb+ gemcitabine, (E) SD133 at 150 mg/kg for 2 weeks, (F) SD133 at 150 mg/kg for 2 weeks+ gemcitabine; (G) vehicle (10% DMSO in 30% PEG400), (H) SD133 at 150 mg/kg for 5 weeks, and mice with pre-existing mT3 tumors treated with (I) SD133 at 40 mg/kg, and (J) SD133 at 10 mg/kg. Mouse body weight was measured once or twice a week. Body weight of immunodeficient Rag1-mutant mice on C57BL/6J background with pre-existing syngeneic mT3 tumors treated with (K) vehicle (10% DMSO in 30% PEG400), and (L) SD133 at 40 mg/kg. Gender of mice is indicated in the graphs by commonly used gender symbols. The dose, route and treatment schedule are indicated in colored bars under the x-axes.
as §1

[3] = system: mT3 pancreatic cancer cells; experiment: s.c. mT3 tumor growth in immunocompromised Rag1-mutant mice; format: in vivo, mouse; details: SD133 40 mg/kg, pre-existing tumors 100 mm^3, Rag1-mutant mice without mature T and B cells (FIG. 5I)
From the text: (§2) The experimental protocols were approved by the Georgetown University Animal Care and Use Committee. A pair of CDH11^−/− mice (Horikawa et al. Dev. Biol. 215: 182-189 (1999)) was kindly provided by Dr. Michael Brenner from Harvard University. A breeding pair of p48-Cre;LSL-Kras^G12D/+;LSL-Trp53^R172H/+ (KPC) mice (Hingorani et al. Cancer Cell 7: 469-483 (2005)) was provided by Dr. Anton Wellstein from Georgetown University. C57BL/6J mice (Cat #000664; Research Resource Identifier (RRID): IMSR_JAX:000664) and Rag1-mutant mice on C57BL/6J background (Cat #002216; RRID: IMSR_JAX:002216) were purchased from The Jackson Laboratory (Bar Harbor, Me.). In transplant experiments, 12-week old C57BL/6J and Rag1-mutant (on C57BL/6J background) mice were bilaterally subcutaneously (s.c.) injected with 5×10^5 mT3 pancreatic cancer cells, derived from a Kras^+/LSL-G12D;Trp53^+/LSL-R172H;Pdx-Cre mouse on C57BL/6 background. Both genders of mice were equally represented throughout all in vivo experiments. Mice were housed in specific pathogen free environment under standard conditions. See, Bandrowski et al. “The Resource Identification Initiative: A cultural shift in publishing,” F1000Res 4: 134 (2015), regarding Research Resource Identifiers (RRIDs), […]

KPC mice (PDAC) = experiment: Survival of KPC transgenic PDAC mice under treatment; format: in vivo, mouse
From the text: as §2

[4] = single agent, mT3-engrafted mice (FIG. 11)

SMILES | growth rate of pre-existing tumors ([1]; SD133 10 mg/kg) | growth rate of pre-existing tumors ([1]; SD133 40 mg/kg) | tumor growth ([1]; SD133 150 mg/kg continued throughout the study, 5 weeks (FIG. 5G)) | combinatorial effect with gemcitabine on tumor growth ([1]; SD133 for 2 weeks + gemcitabine i.p. 100 mg/kg 2x week (FIG. 5F)) | tumor growth ([1]; SD133 i.p. 150 mg/kg 4x week for 2 weeks, beginning on day 2 after cancer cell injection (FIG. 5E)) | tumor size versus control after treatment discontinued ([1]; after the 2-week SD133 treatment was discontinued) | efficacy as a monotherapy (summary) ([1]; immunocompetent mT3 model, summary statement) | affinity of binding to the CDH11 binding pocket (CDH11) | mouse body weight ([2]; in combination with gemcitabine, mT3-engrafted C57BL/6J mice (FIG. 11)) | toxicity ([2]; mouse, in vivo) | mouse body weight [2, 4] | tumor growth [3] | first PDAC-related death (KPC mice (PDAC); KPC/CDH11-deficient mice, gemcitabine 6 weeks starting at 100 days of age) | overall survival versus untreated KPC/CDH11-deficient group (KPC mice (PDAC); gemcitabine 6 weeks starting at 100 days of age (FIG. 4B)) | tumor growth ([1]; monotherapy, gemcitabine i.p. 100 mg/kg 2x week or CDH11 mAb i.p. 10 mg/kg 2x week (FIG. 5A, 5B))
Oc1ccc(-c2cccnc2-c2ccccc2)cc1 [SD133] | significantly reduced | significantly reduced | reduced tumor growth was observed for the duration of the treatment | not observed | marked reduction in tumor growth | remained significantly smaller than tumors in control animals | remarkably effective | low μM | does not affect mouse body weight | no sign of toxicity | no decrease in animal weight; also recorded: does not affect mouse body weight | did not suppress tumor growth | – | – | –
Nc1ccn([C@@H]2O[C@H](CO)[C@@H](O)C2(F)F)c(=O)n1 [gemcitabine, reference compound] | – | – | – | – | – | – | – | – | – | – | does not affect mouse body weight | – | 165 days | improved significantly | did not reduce tumor growth
